Where two headings read alike, the source gives them in different places. Marks after values point to notes of the source that are not given here.

Data set [1] deals with VZV. The experiment in a line: Antiviral assay, VZV yield by infectious focus. It counts as cell-based, Varicella-zoster virus. As to conditions: for Selective Index: cytotoxic dose divided by the EC50 (plaque assay).
For data set [2], the system named is VZV-BAC-Luc. The experiment in a line: Skin organ culture. It is filed as cell-based, Varicella-zoster virus. As to conditions: for antiviral effects in SOC compared with cultured HFFs: 2 dpi, same concentrations as in HFFs (EC99 doses); for effect on total flux in skin explants: SOC, EC99 doses: 400 μM acyclovir, 1 mM PAA, 1 mM L-mimosine, 50 μM DRB, 20 μM aphidicolin, 20 μM aloisine A, 20 μM purvalanol A, 25 μM roscovitine.

Data set [3] deals with VZV-BAC-Luc. It counts as in vivo, Varicella-zoster virus. As to conditions: for effect on VZV growth rate in vivo: SCID-Hu mice, dose groups combined, 3 experiments.
Data set [4] concerns VZV. The experiment in a line: Attempt to isolate roscovitine-resistant VZV by continuous culture. It is filed as cell-based, Varicella-zoster virus. The note with it: 10 weeks of continuous culture at doses below the EC50, authors' observations.
Data set [5] has as its system VZV. As to conditions: ref Taylor et al., 2004; cited from earlier work.
For a further data set, the system named is skin tissue. The note with it: skin organ culture; ref Taylor and Moffat, 2005; cited from earlier work.
Data set [6] in a line: Tolerability in SCID-Hu mice.
Data set [7] relates to VZV. The experiment in a line: Antiviral assay, VZV genome copy number by quantitative PCR. It counts as cell-based, Varicella-zoster virus. The note with it: read-out: VZV EC50 (qPCR). Background: Quantitative PCR measures a nucleic acid by following its amplification.
The next data set concerns HFFs. As to conditions: for Cell Growth Arrest Dose: lowest dose for which absorbance at 48 h was the same as at 0 h.
Setting [8] is: Human alphaherpesvirus 3, MeWo, 48 h, read-out: VZV EC50 (titer).
[9] abbreviates: 0.7 mg/kg/day, s.c. osmotic pump, 7 days.
The mark [10] stands for this setting: 1.5 mg/kg/day, s.c. osmotic pump, 7 days.
Setting [11] is: 2.8 mg/kg/day, s.c. osmotic pump, 7 days.
Where [12] appears, read: 4.3 mg/kg/day, s.c. osmotic pump, 7 days.
Setting [13] is: read-out: VZV EC50 (titer), HFFs, 48 h, titered on MeWo cells.
The mark [14] stands for this setting: subconfluent HFFs, 48 h, fold change less than 1, * = solubility limit.
Where [15] appears, read: HFFs, 48 h, ORF38 copies normalized to β-globin.

The EC50 is the concentration at which the effect is half-maximal. Consider `CC[C@H](CO)Nc1nc(NCc2ccccc2)c2ncn(C(C)C)c2n1` (racemic) [Roscovitine (racemic), Roscovitine], for which, in the data set on VZV [1] (setting [8]), the EC50 is 4 µM. Further, the “antiviral effects in SOC compared with cultured HFFs” value with VZV-BAC-Luc [2] is given as “similar”. In addition, the “effect on total flux in skin explants” value with VZV-BAC-Luc [2] was “reduced the total flux”. Further, the “Avg. VZV Growth Rate” value is listed as 0.13 Log10 photons/sec/day in the data set on VZV-BAC-Luc [3] (setting [9]), 0.12 Log10 photons/sec/day in the data set on VZV-BAC-Luc [3] (setting [10]), 0.24 Log10 photons/sec/day with VZV-BAC-Luc [3] (setting [11]) and 0.26 Log10 photons/sec/day with VZV-BAC-Luc [3] (setting [12]). The “effect on VZV growth rate in vivo” value with VZV-BAC-Luc [3] is “significantly reduced VZV growth rates”. Besides, the “isolation of a resistant strain of VZV” value with VZV [4] is “failed”. Moreover, in the data set with VZV [5], the “reversibility of antiviral effect” value is listed as “reversible”. In the data set on skin tissue, the “cytotoxicity by histopathological analysis of skin tissue” value is listed as “neither DMSO nor roscovitine was cytotoxic”. Also, the Mortality is on record as 0/5 in [6] (setting [9]), 0/4 in [6] (setting [10]), 0/7 in data set [6] (setting [11]) and 0/5 in [6] (setting [12]). The results for the ABWD in data set [6] (setting [10]), in data set [6] (setting [11]) and in data set [6] (setting [12]) were −0.10 grams, −1.60 grams and 0.36 grams, respectively.
As to `Nc1nc2c(ncn2COCCO)c(=O)[nH]1` [Acyclovir], the 50% effective concentration (EC50) with VZV [7] (Human alphaherpesvirus 3, 48 h) is 5 µM; in the data set on VZV [1] (setting [8]), 4 µM. For the same molecule, the “tolerance in Neutral Red assay” value with HFFs was “tolerated up through the limit of their solubility”. The “Cytotoxic Dose” value with HFFs (human, 48 h) is 1.0 × 10^3* μM.
For the molecule `CCCCc1c(-c2ccc(O)cc2)[nH]c2nccnc12` [Aloisine A], the EC50 with VZV [7] (Human alphaherpesvirus 3, 48 h) is 2 µM; in the data set with VZV [1] (setting [8]), 2.5 µM; in the data set with VZV [1] (Human alphaherpesvirus 3, read-out: EC50 values) it was 2 to 4 µM. The “antiviral effects in SOC compared with cultured HFFs” value in the data set on VZV-BAC-Luc [2] was “much lower”. Further, in the data set on VZV-BAC-Luc [2], the “effect on total flux in skin explants” value is “increased”. In the data set with HFFs (HFFs, culture medium at 37°C), the “tolerance in Neutral Red assay” value was “tolerated up through the limit of their solubility”. In addition, the “Cell Growth Arrest Dose” value with HFFs (HFFs) was 20 µM.
Consider `C[C@@]1(CO)[C@H](O)CC[C@@]2(C)[C@H]1CC[C@H]1C[C@@H]3C[C@@]12CC[C@]3(O)CO` [Aphidicolin], for which the “Selective Index” value in the data set with VZV [1] worked out at 833. In the data set with VZV-BAC-Luc [2], the “antiviral effects in SOC compared with cultured HFFs” value was “similar” and the “effect on total flux in skin explants” value is “reduced the total flux”. Moreover, the “tolerance in Neutral Red assay” value with HFFs (HFFs, culture medium at 37°C) is recorded as “tolerated up through the limit of their solubility”.
Regarding `C[S+](C)[O-]` [DMSO, Dimethylsulfoxide], the EC50 in the data set with VZV [1] (setting [13]) is 75000 µM. Moreover, the “effect on cell growth” value with HFFs (HFFs, 400 mM) is given as “inhibited cell growth slightly”. Besides, in the data set on HFFs (HFFs, 48 h), the “concentration with no effect in Neutral Red assay” value is listed as “up to 150 mM”. In addition, the “Cytotoxic Dose” value in the data set on HFFs (setting [14]) is >400000 µM.
As for `OC[C@H]1O[C@@H](n2cnc3cc(Cl)c(Cl)cc32)[C@H](O)[C@@H]1O` [DRB, Dichloro-β-D-ribofurano-sylbenzimidazole], the EC50 stood at 2 µM in the data set on VZV [7] (setting [15]) and 5 µM in the data set on VZV [1] (setting [13]). The “antiviral effects in SOC compared with cultured HFFs” value with VZV-BAC-Luc [2] was “similar”. For the same molecule, in the data set on VZV-BAC-Luc [2], the “effect on total flux in skin explants” value is reported as “reduced the total flux”. Besides, the “Cell Growth Arrest Dose” value with HFFs (HFFs) was 50 µM.
Turning to `N[C@@H](Cn1ccc(=O)c(O)c1)C(=O)O` [L-mimosine], the EC50 was found to be 50 µM in the data set on VZV [7] (Human alphaherpesvirus 3, 48 h) and 70 µM in the data set on VZV [1] (setting [8]). Moreover, the “Selective Index” value in the data set with VZV [1] is given as 43. Further, the “antiviral effects in SOC compared with cultured HFFs” value in the data set on VZV-BAC-Luc [2] is recorded as “similar”. The “effect on total flux in skin explants” value with VZV-BAC-Luc [2] is “reduced the total flux”. Also, in the data set with HFFs (HFFs), the “Cell Growth Arrest Dose” value came to 300 µM. For the same molecule, in the data set on HFFs (human, 48 h), the “Cytotoxic Dose” value was found to be 3000 µM.
Turning to `O=C(O)CP(=O)(O)O` [Phosphonoacetic acid (PAA), Phosphonoacetic acid], the EC50 with VZV [7] (Human alphaherpesvirus 3, 48 h) turned out to be 500 µM; with VZV [1] (setting [8]), 300 µM. For the same molecule, the “Cytotoxic Dose” value in the data set on HFFs (human, 48 h) turned out to be 15000 µM.
Take `CC(C)[C@H](CO)Nc1nc(Nc2cccc(Cl)c2)c2ncn(C(C)C)c2n1` [Purvalanol A]: the “Selective Index” value with VZV [1] is 570. Moreover, the “antiviral effects in SOC compared with cultured HFFs” value in the data set on VZV-BAC-Luc [2] is on record as “much lower”. In the data set on VZV-BAC-Luc [2], the “effect on total flux in skin explants” value was “increased”. For the same molecule, the “Avg. VZV Growth Rate” value in the data set with VZV-BAC-Luc [3] (10 mg/kg/day, daily i.p. injection) came out at 0.37 Log10 photons/sec/day. The entries for the “effect on VZV growth rate in vivo” value in the data set on VZV-BAC-Luc [3] and with VZV-BAC-Luc [3] (listed as purvalanol A) were “not effective at reducing the rate of VZV growth” and “No difference”, respectively. In the data set with HFFs (HFFs), the “Cell Growth Arrest Dose” value turned out to be 10 µM. In addition, the “Cytotoxic Dose” value with HFFs (setting [14]) is 20 µM. Also, the ABWD in data set [6] (20 mg/kg/day, daily i.p. injection) is −2.96 grams. In addition, in [6] (i.p. injection, 20 or 10 mg/kg/day), the tolerability in mice result is listed as “not as well tolerated as roscovitine”.
Turning to `CC[C@H](CO)Nc1nc(NCc2ccccc2)c2ncn(C(C)C)c2n1` [R-Roscovitine], the 50% effective concentration (EC50) with VZV [7] (Human alphaherpesvirus 3, 48 h) came to 3 µM; with VZV [1] (setting [8]), 3.5 µM.
As for `CC[C@@H](CO)Nc1nc(NCc2ccccc2)c2ncn(C(C)C)c2n1` [S-Roscovitine], the figures for the half-maximal effective concentration (EC50) in the data set on VZV [7] (setting [15]) and in the data set on VZV [1] (setting [13]) were 1 µM and 2.5 µM, respectively.
In the case of `CN[C@@H]1C[C@H]2O[C@@](C)([C@@H]1OC)n1c3ccccc3c3c4c(c5c6ccccc6n2c5c31)C(=O)NC4` [staurosporine], the “live cells after treatment” value in the data set with HFFs (HFFs, 35 nM, positive control for cell death) is “No live cells were detected”.

Source of the values: PMC2866756 (Antiviral research, 2010).
